Measured values reported in patent US8063101B2, “Carotenoid analogs and derivatives for the prevention of platelet aggregation” (Cardax Pharmaceuticals, Inc., priority 2007, dated 2011).

System: platelet aggregation
Assay: Ex vivo platelet aggregation induced with ADP or AA
Type: in vivo, beagle dogs
Procedure: Whole blood (10 ml) was drawn from a right femoral vein cannula into a plastic syringe containing 3.7% sodium citrate as the anticoagulant (1:100 volume ratio of citrate to blood). A whole blood cell count was determined with an H-2000 cell counter (Texas International Laboratories, Inc., Culver City, Calif.). Platelet-rich plasma (PRP), the supernatant present after centrifugation of whole blood at 100×g for 10 min, was diluted with Platelet-poor plasma (PPP) to achieve a platelet count of approximately […]. PPP was prepared by centrifuging the remaining blood at 1,500×g for 10 min and discarding the bottom cellular layer. Ex vivo platelet aggregation was assessed by established spectrophotometric methods with the use of a four-channel aggregometer (BioData PAP-4; BioData Corp., Horsham, Pa.) by recording the increase in light transmission through a stirred suspension of PRP maintained at 37° C. Aggregation was induced with ADP (20 μM) or AA (0.65 mM). A subaggregatory concentration of epinephrine (550 nM) was used to prime the platelets before addition of the agonists to induce platelet aggregation. Values for platelet aggregation are expressed as percentage of light transmission standardized to PRP and PPP samples yielding 0 and 100% light transmission, respectively.

Structure (SMILES): CC1=C(/C=C/C(C)=C/C=C/C(C)=C/C=C/C=C(C)/C=C/C=C(C)/C=C/C2=C(C)C(=O)C(OC(=O)CCC(=O)O)CC2(C)C)C(C)(C)CC(OC(=O)CCC(=O)O)C1=O (centres unmarked) [DDA, Disodium disuccinate astaxanthin]
- ex vivo platelet aggregation responses to AA and ADP (DDA 10, 30 or 50 mg/kg, ADP 20 μM or AA 0.65 mM): dose dependently attenuated
- ex vivo platelet aggregation (DDA 30 and 50 mg/kg doses): Significant reductions
